Source: publication PMC6934184, “Selective DNA-PKcs inhibition extends the therapeutic index of localized radiotherapy and chemotherapy” (The Journal of Clinical Investigation, 2019)

Biological target: T1, EPHA8 (Homo sapiens, UniProt P29322)
T1 construct: purchased Thermo Fisher Scientific (Life Technologies) SelectScreen
Test: SelectScreen Z'LYTE
Assay type: biochemical
How it was run: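 NU5455 was profiled across the SelectScreen Broad panel of kinase activity and binding assays. Z'LYTE reactions such as CSF1R ran at apparent Km ATP, while the Adapta CAMK1 assay used ATP listed as 10. Values are given as percent.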

T1 sequence (P29322 28-1005): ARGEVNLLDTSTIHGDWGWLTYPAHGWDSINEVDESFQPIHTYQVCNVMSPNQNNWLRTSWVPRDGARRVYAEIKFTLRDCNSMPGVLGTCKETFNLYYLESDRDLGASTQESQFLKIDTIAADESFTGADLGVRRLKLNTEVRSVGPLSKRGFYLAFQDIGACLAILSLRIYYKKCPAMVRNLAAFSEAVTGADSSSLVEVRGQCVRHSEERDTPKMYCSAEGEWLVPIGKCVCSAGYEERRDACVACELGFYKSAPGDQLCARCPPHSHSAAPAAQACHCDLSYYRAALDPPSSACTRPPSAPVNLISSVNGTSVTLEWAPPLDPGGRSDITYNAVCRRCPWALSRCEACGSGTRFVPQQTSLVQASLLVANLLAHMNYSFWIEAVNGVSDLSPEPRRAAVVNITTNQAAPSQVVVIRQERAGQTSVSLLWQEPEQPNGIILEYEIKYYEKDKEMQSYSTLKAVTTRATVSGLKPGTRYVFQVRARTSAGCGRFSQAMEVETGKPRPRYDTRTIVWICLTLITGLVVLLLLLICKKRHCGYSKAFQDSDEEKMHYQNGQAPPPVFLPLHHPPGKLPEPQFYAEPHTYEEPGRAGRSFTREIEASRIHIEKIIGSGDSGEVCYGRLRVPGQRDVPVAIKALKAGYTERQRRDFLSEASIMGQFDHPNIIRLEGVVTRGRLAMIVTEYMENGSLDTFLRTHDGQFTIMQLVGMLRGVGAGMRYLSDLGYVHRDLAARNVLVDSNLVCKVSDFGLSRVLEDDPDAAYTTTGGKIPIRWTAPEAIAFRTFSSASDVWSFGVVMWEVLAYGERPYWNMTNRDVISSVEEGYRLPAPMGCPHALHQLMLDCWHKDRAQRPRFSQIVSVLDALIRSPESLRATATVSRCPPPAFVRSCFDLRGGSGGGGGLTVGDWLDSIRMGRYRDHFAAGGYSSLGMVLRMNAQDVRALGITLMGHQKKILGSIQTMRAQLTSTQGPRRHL

For CN(C(=O)CN1CCOCC1)c1ccc2sc3c(-c4cccc5c(=O)cc(N6CC7CCC(C6)O7)oc45)cccc3c2c1 [NU5455], the inhibition at 1 µM was -13.8%.
